# Data taken from patent publication US8394629B2, “Use of vinca alkaloids and salts thereof” (Keio University, priority 2003, dated 2013).
# What was measured:
# [1] = test system: pancreatic acinar carcinoma AR42J-B13 cells; test: ELISA quantification of insulin secretion of differentiated AR42J-B13 cells; format: cell-based, rat; settings: secretion below the detection level
# [2] = test system: pancreatic acinar carcinoma AR42 J-B13 cells; settings: known from prior report; cited from earlier work
# [3] = test system: pancreatic acinar carcinoma AR42J-B13 cells; test: Morphological change and trypan blue exclusion test of AR42J-B13 cells; format: cell-based, rat
# Experimental: (§1) DMEM was sterilized by filtration after its pH was adjusted to 7.4 in the presence of 20 mM HEPES-NaOH. AR42J-B13 cells (endowed by Dr. Itaru Kojima, Institute for Cellular and Molecular Regulation, Gunma University) a highly sensitive subclone of AR42J, were cultured at 37° C. in a 5% CO2 incubator with 20 ml of culture medium DMEM supplemented with 100 mg/l kanamycin, 0.6 g/l glutamine, 100 unit/ml penicillin G, 5 mM NaHCO3, and 10% FBS. To prevent transformation due to a high density of the cells and to retain differentiation ability of the cells, the cells were transferred every 2 to 3 days to maintain 2.5% to 5% of confluency. The cell transfer was performed as follows: After the medium was removed, the cells were washed twice in PBS^− (Ca^2+, Mg^2+-free PBS; 8 g/l, NaCl, 0.2 g/l KCl, 0.916 g/Na2HPO4, 0.2 g/l KH2PO4). Subsequently, the cells were detached using 2 ml of trypsin-EDTA solution, and then trypsin was inactivated by addition of 8 ml of the medium. […]
# Cells that had been prepared at a density of 4×10^5 cells/ml were plated at 500 μl per well on 24-well plates, followed by incubation at 37° C. in a 5% CO2 incubator. […] Further, the photograph was enlarged 2.5 times and a morphological change was defined as having occurred when the full length of a cell in the diameter became 1.5 times; thus, the rates of morphological changes were determined.
# [4] = test system: neonatal porcine pancreatic cells; test: Immunostaining of insulin-producing cells in cultured neonatal porcine pancreatic cells (Experiment example I); format: cell-based, pig; settings: three weeks culture; nicotinamide 10 mM, HGF 10 ng/ml, conophylline 0.1 μg/ml; FIG. 2
# Experimental: Neonatal pigs within 72 hours of birth were obtained from the (Takayama) pig farm. The whole pancreas (ventral and dorsal pancreas) was removed under general anesthesia immediately after animals were brought to the operating room. After elimination of connective tissue covering the removed pancreas and blood adhering to it, the pancreas was transferred to a 10 ml beaker and dissected into small pieces with ophthalmic scissors. The dissected pieces were transferred to a 100 ml conical flask, to which 50 to 60 ml of phosphate buffered saline (PBS) was added. After a 3 min rotation at 110 rpm on a low speed stirrer, the mixture was allowed to stand still and the supernatant was discarded. Then, 40 mL of phosphate buffered saline containing Liberase PI (Roche) at a concentration of 2.5 mg/ml was added. After an 8 min rotation at 110 rpm on a low speed stirrer, the mixture was allowed to stand still and the supernatant containing the cells was collected. The operation was repeated 5 times. The supernatant collected was centrifuged at 1200 rpm for 5 min. to collect cells. The cells collected in the centrifugal sedimentum was suspended in 25 to 50 ml of PBS, 25 ml of cell suspension was overlaid gently on 10 ml of Histopaque 1077 (Sigma), followed by centrifugation at 1800 rpm for 10 min. […]
# [5] = test system: streptozotocin-administered rats; test: Blood glucose levels of streptozotocin-administered rats; format: in vivo, Wistar rats; settings: 5 μg/g BW subcutaneously for seven consecutive days from day 1 after streptozotocin; versus control; P<0.05 / P<0.01; FIG. 4
# Experimental: Ten 1-day old Wistar rats (purchased from Japan SLC, Shizuoka, Japan) were intraperitoneally injected with streptozotocin (purchased from Wako Pure Chemical Industries, Ltd., dissolved in […] citrate buffer (pH 4.5)) at 85 μg/g BW per rat. Streptozotocin decreases insulin production by destroying pancreatic β cells, thereby inducing diabetes. The day of streptozotocin injection was defined as day 0, Starting from the next day (day 1), five rats were injected subcutaneously with a solution (ethanol) of conophylline at 5 μg/g BW for seven consecutive days and their random blood glucose levels were measured daily. Five rats in the control group received the same volume of solvent (Control).
# [6] = test system: pancreatic acinar carcinoma AR42J-B13 cells; test: Insulin immunofluorescence of AR42J-B13 cells; format: cell-based, rat; settings: after 72 hours; conophylline 0.1 μg/ml, HGF 100 pM, activin A 2 nM
# Experimental: as §1, with “medium. Subsequently, the cell were sedimented by centrifugation at 1000 rpm for 5 min, trypsin was removed, 10 ml of fresh medium was added, and transferred to be 2.5% to 5% of confluency. Cells were cryopreserved under the condition of 7.5% dimethyl sulfoxide (DMSO).” for “medium.”
# porcine pancreatic cells = test: Induction of insulin production in porcine pancreatic cells (statement in the description); format: cell-based, pig; settings: no conditions given
molecule,measurement,setting,value
CC[C@@]12CC(C(=O)OC)=C3Nc4cc5c(cc4[C@@]34CCN(C[C@H]3O[C@H]31)[C@@H]24)[C@@H]1[C@H](O5)[C@@H](O)[C@@]2(CC)CC(C(=O)OC)=C3Nc4c(cc(O)c(OC)c4OC)[C@@]34CCN1[C@@H]24 [conophylline],insulin secretion out of cells,[1],incapable of inducing insulin secretion out of cells
same,insulin production of AR42J cells,[2],induces insulin production
same,insulin release into culture medium,[2],did not release insulin into culture medium
same,process outgrowth (morphological change),"[3]; conophylline 0.1 to 0.3 μg/ml, alone or with HGF",concentration-dependently induced
same,insulin-producing cells colored in red (immunostaining),[4],only a few insulin-producing cells
same,blood glucose levels,[5],apparent decrease in blood glucose levels
CC[C@@]12C=CCN3CC[C@]4(C(=C(C(=O)OC)C1)Nc1cc5c(cc14)[C@H]1[C@@H](O5)[C@H](O)[C@]4(CC)CC(C(=O)OC)=C5Nc6c(cc(O)c(OC)c6OC)[C@@]56CCN1[C@H]46)[C@H]32 (stereo in doubt) [conophyllidine],morphological changes involved in insulin production,"[3]; AR42J cells, no concentration given",confirmed to induce morphological changes
"NC(=O)c1cccnc1 [nicotinamide, reference compound]",insulin-producing cells colored in red (immunostaining),[4],only a few insulin-producing cells
"HGF: Hepatocyte growth factor (HGF), Sigma",red coloration of insulin in cells (immunofluorescence),[6],no red coloration indicating insulin was observed
"Activin: activin A, which belongs to the TGF-β superfamily (protein, UniProt P08476 311-426, looked up) Inhibin beta A chain: GLECDGKVNICCKKQFFVSFKDIGWNDWIIAPSGYHANYCEGECPSHIAGTSGSSLSFHSTVINHYRMRGHSPFANLKSCCVPTKLRPMSMLYYDDGQNIIKKDIQNMIVEECGCS",insulin production of AR42J cells,[2],capable of inducing AR42J cells to produce insulin
same,inducing insulin production of porcine pancreatic cells,porcine pancreatic cells,does not exhibit the effect
